Results taken from patent publication US12448399B2, “Cereblon-based KRAS degrading PROTACs and uses related thereto” (Arvinas Operations, Inc., priority 2023, dated 2025).

What was measured:
[1] = system: HPAC; assay: Tumor growth inhibition in vivo, HPAC pancreatic cancer model; set-up: species or system CB17 SCID female mice; settings: dosed intravenously (IV)
Procedure: (§1) The effect on tumor growth of treatment with Compound 69 and 102 was assessed in the GP2d (95090714 Millipore Sigma, USA) and LS180 (CL-187 ATCC, USA) colorectal cancer models, and the AsPC-1 (CRL-1682 ATCC, USA), SW1990 (CRL-2172, ATCC, USA), HPAC (CRL-2119 ATCC, USA), and Panc04.03 (CRL-2555 ATCC, USA) pancreatic cancer models. Briefly, cells were grown in HYPER flasks (Corning) and harvested and prepared for implant by preparing a suspension with a final concentration of 25×10^6 cells/ml in 50% matrigel (Corning) and 50% phenol red-free media (Gibco DMEM or RPMI-1640, depending on cell line). For Panc04.03, 6-7 week NOD/SCID female mice (GemPharmatech Co. Ltd) were inoculated with 200 μl of the cell suspension ([…]) subcutaneously on the left flank under sterile conditions. For all other cell lines, 6-8 weeks old CB17 SCID female mice (Charles River Laboratories) were inoculated with 200 μl of the cell suspension (5 million cells/mouse) subcutaneously on the left flank under sterile conditions. Studies were initiated when tumors reached an average of approximately 200 mm^3. […] Tumor growth inhibition (TGI) was calculated using the formula % TGI=(VC−VT)/(VC−V0)×100 where VC, VT are the average of control and treated groups at the end of the study, and V0 is the average tumor volume at randomization.

[2] = system: GP2d; assay: Tumor growth inhibition in vivo, GP2d colorectal cancer model; set-up: species or system CB17 SCID female mice; settings: dosed intravenously (IV)
Procedure: as §1

[3] = system: LS180; assay: Tumor growth inhibition in vivo, LS180 colorectal cancer model; set-up: species or system CB17 SCID female mice; settings: dosed intravenously (IV)
Procedure: as §1

[4] = system: Panc04.03; assay: Tumor growth inhibition in vivo, Panc04.03 pancreatic cancer model; set-up: species or system NOD/SCID female mice; settings: Panc04.03 model, dosed intravenously (IV)
Procedure: as §1

[5] = system: AsPC-1; assay: Tumor growth inhibition in vivo, AsPC-1 pancreatic cancer model; set-up: species or system CB17 SCID female mice; settings: AsPC-1 model, dosed intravenously (IV)
Procedure: as §1

[6] = biological target: T1, KRas-G12D (Homo sapiens, UniProt P01116, G12D); assay: HiBiT Degradation Assay (G12D), AsPC-1 HiBiT-KRasG12D cells, 24 hr; format: cell-based; settings: for Dmax: ASPC1, AsPC-1 cells, maximum degradation observed; for DC50: AsPC-1 cells
T1 construct: insert the HiBiT tag onto the N-terminus of one or more of the endogenous KRas alleles; host or cells: AsPC-1 HiBiT-KRasG12D knock-in clone (one tagged allele, two untagged KRasG12D alleles)
T1 sequence (P01116 1-188 isoform P01116-2 G12D): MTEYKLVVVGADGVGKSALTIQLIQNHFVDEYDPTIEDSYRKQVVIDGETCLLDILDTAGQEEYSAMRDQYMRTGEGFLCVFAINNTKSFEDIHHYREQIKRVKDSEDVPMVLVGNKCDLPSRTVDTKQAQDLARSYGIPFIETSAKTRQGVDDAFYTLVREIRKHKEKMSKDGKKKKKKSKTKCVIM
Summary of the method: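 Degradation was read after 24 hr compound exposure (0.5% DMSO, 37° C) by Nano-Glo HiBiT lytic luminescence in AsPC-1 cells carrying a HiBiT tag on one of three KRasG12D alleles. Signal relative to DMSO gave DC50 and Dmax by 4-parameter fit; alamar blue fluorescence monitored cytotoxicity.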

[7] = system: SW1990; assay: Tumor growth inhibition in vivo, SW1990 pancreatic cancer model; set-up: species or system CB17 SCID female mice; settings: dosed intravenously (IV)
Procedure: as §1

SMILES: C#Cc1c(F)ccc2cc(O)cc(-c3ncc4c(N5CC6CCC(C5)N6)nc(OCCN5CCC(CC6CCN(CC7CCN(c8ccc9c(c8F)CN(C8CCC(=O)NC8=O)C9=O)CC7)CC6)CC5)nc4c3F)c12 (stereo not shown) [Compound 69, 3-[5-[4-[[4-[[1-[2-[4-(3,8-diazabicyclo[3.2.1]octan-3-yl)-7-(8-ethynyl-7-fluoro-3-hydroxy-1-naphthyl)-8-fluoro-pyrido[4,3-d]pyrimidin-2-yl]oxyethyl]-4-piperidyl]methyl]-1-piperidyl]methyl]-1-piperidyl]-4-fluoro-1-oxo-isoindolin-2-yl]piperidine-2,6-dione]
- Tumor growth inhibition (TGI) [1]: robust TGI
- Tumor growth inhibition (TGI) [2]: robust TGI
- Tumor growth inhibition (TGI) [3]: robust TGI
- Tumor growth inhibition (TGI) [4]: robust TGI
- Tumor growth response [5]: More moderate response
- Dmax [6]: > 70%
- DC50 [6]: < 5.1 µM
- Tumor growth inhibition (TGI) [7]: robust TGI

SMILES: C#Cc1c(F)ccc2cc(O)cc(-c3ncc4c(N5CC6CCC(C5)N6)nc(OCCN5CCC(CC6CCN(CC7CCN(c8ccc9c(c8)n(C)c(=O)n9C8CCC(=O)NC8=O)CC7)CC6)CC5)nc4c3F)c12 (stereo not shown) [Compound 102, 3-[5-[4-[[4-[[1-[2-[4-(3,8-diazabicyclo[3.2.1]octan-3-yl)-7-(8-ethynyl-7-fluoro-3-hydroxy-1-naphthyl)-8-fluoro-pyrido[4,3-d]pyrimidin-2-yl]oxyethyl]-4-piperidyl]methyl]-1-piperidyl]methyl]-1-piperidyl]-3-methyl-2-oxo-benzimidazol-1-yl]piperidine-2,6-dione]
- Tumor growth inhibition (TGI) [1]: robust TGI
- Tumor growth inhibition (TGI) [2]: robust TGI
- Tumor growth inhibition (TGI) [3]: robust TGI
- Tumor growth inhibition (TGI) [4]: robust TGI
- TGI [5]: 100%
- Dmax [6]: > 70%
- DC50 [6]: < 5.1 µM
- Tumor growth inhibition (TGI) [7]: robust TGI
